Laboratory results: patent US10829446B2, “Aryl sulfonohydrazides” (MONASH UNIVERSITY, priority 2015, dated 2020)

Columns and labels:
Type in all cases: cell-based
[1] = system: Eμ-Myc pre-leukemia pre B cells; experiment: Bioassay 7: pre-B cell number dose response, Eμ-Myc
Method: (§1) Pre B cells are isolated from bone marrow according to the criterion: cell surface expression of B220, CD19, but not cKit or IgM. Pre-B cells are cultured on OP9 cells with IL7 in the presence of compounds at concentrations from 0.01 μM to 20 μM in vitro for 4 days. Cell number is then enumerated and an IC50 is calculated.

wild type pre-B cells = experiment: Bioassay 9: cell cycle analysis (DNA content and BrdU)
Method: Pre B cells are isolated from bone marrow according to the criterion: cell surface expression of B220, CD19, but not cKit or IgM. Pre-B cells are cultured on OP9 cells with IL7 in the presence of compounds at various concentrations. The stages of the cell cycle in pre-B cells with and without treatment is analysed using flow cytometry to assay, using a stain for DNA content combined with BrdU to determine the proportion of cells in S phase.

Wild type pre B cells [2] = experiment: Bioassay 6: proliferation curves of pre-B cells on OP9 feeder layer, wild type
From the text: Pre B cells are isolated from bone marrow according to the criterion: cell surface expression of B220, CD19, but not cKit or IgM. Proliferation curves of wild type pre-B cells and Ep-Myc pre-leukemia pre B cells are generated by counting cells cultured on OP9 cell feeder layer in the presence of the growth factor IL-7. Media is changed every two days and cells are passaged every 4 days.

[3] = system: Mouse embryonic fibroblasts; experiment: Bioassay 1: cellular senescence of mouse embryonic fibroblasts; details: for up regulation of β-galactosidase: […] after plating
Method: (§2) Mouse embryonic fibroblasts are isolated from wild type or Moz heterozygous animals and cultured at 3% oxygen/5% carbon dioxide/92% nitrogen. Cells are plated at a density of 1,020 cells/cm^2 or 2,040 cells/cm^2 or 10,204 cells/cm^2. A reference value for MOZ inhibition is generated through comparison with cells with a complete null mutation of MOZ. The absence of a functional Moz gene leads to senescence in 7-14 days at 3% oxygen.
Cells are plated in triplicate cultures at 10,204 cells/cm^2 in the presence of a test compound. Compounds are tested at 500 nM, 1 μM, 2 μM, 5 μM, 10 μM and 20 μM. Control compounds include those that have a similar structure but show no activity in biochemical assays. After 48 hours, cells are passaged and counted, then replated at 10,204/cm^2. This procedure is continued for 336 hours. The total number of cells produced at each passage is then calculated and compared between treatment groups. […] Cells are analysed by flow cytometry for the absence of markers of apoptosis by staining with propidium iodide and FITC-conjugated annexin V. The level of DNA damaged is assessed by γH2A.X staining, a marker of DNA strand breaks.

wild type pro-B cells = experiment: Bioassay 5: pro-B cell colony formation in methylcellulose, wild type
Method: Pro-B cells are purified by positive selection using antiCD19-magnetic beads and fluorescence activated cell sorting using the criterion: cell surface expression of B220, CD19 and cKit but not IgM. After purification, 25,000 pro-B cells are seeded onto 3.5 cm culture dishes plate containing methylcellulose (MethoCult M3630, STEM CELL technologies) for 7 days. After 7 days culture, colonies in which there were more than 50 cells are counted. Subsequently, 190,000 pro-B cells are replated into methylcellulose for another 7 days of culture, followed by enumeration.

Wild type pre B cells [4] = experiment: Bioassay 7: pre-B cell number dose response, wild type; details: B-cell, 96 h; wild type Pre B cells; 4 days
Method: as §1

Wild type pre B cells [5] = experiment: Bioassay 8: cell cycle analysis (DNA content and Ki67); details: for cells in G0 / cells in G1 / cells in G2/M / cells in S: 1 μM
Method: Pre B cells are isolated from bone marrow according to the criterion: cell surface expression of B220, CD19, but not cKit or IgM. Pre-B cells are cultured on OP9 cells with IL7 in the presence of compounds at various concentrations. The stages of the cell cycle in cultured pre-B cells with and without treatment is analysed by flow cytometry using a stain for DNA content combined with the cell cycle marker Ki67 to enumerate the proportion of cells in different phases of the cell cycle.

[6] = system: mouse embryonic fibroblasts transfected with control retroviral vector pBABE; experiment: Bioassay 4: cumulative cell counts, control vector pBABE; details: 5 μm
Method: To test if cells expressing mutant forms of RAS sensitized to senescence induction, MOZ inhibitors were combined with the ectopic expression of KRASG12V. Cells are plated in triplicate cultures at 10,204 cells/cm2 then transfected with control retroviral vectors pBABE or pBABE containing a mutant KrasG12V expression cassette. Cultures were maintained at 3% O2. Selection for transfected cells is achieved using puromycin. Compounds are tested at 0 μM 1 μM, 2.5 μM, and 5 μM. After 48 hours, cells are passaged and counted, then replated at 10,204/cm2. This procedure is continued for 336 hours. The total number of cells produced at each passage is then calculated and compared between treatment groups. Cellular senescence is determined by cell cycle arrest. Comparisons are between cells treated with vehicle only expressing the control vector, cells treated with 5 μM expressing the control vector (concentration shown in bioassay 1 to produce cellular senescence) and cells treated with 0 uM 1 μM, 2.5 μM, and 5 μM expressing the KrasV12 expressing vector vector

Cdc6 mRNA = experiment: Bioassay 2: RT-qPCR of MOZ target genes in mouse embryonic fibroblasts; details: 5 μM
Method: as §2
Cells are plated in triplicate at 2,040 cells/cm^2 in the presence of a test compound. Compounds are tested at 500 nM, 1 μM, 2 μM, 5 μM, 10 μM and 20 μM. Control compounds include those that have a similar structure but show no activity in biochemical assays. […] RT-qPCR is used to assay the levels of MOZ target genes Ink4a, ink4b, Arf, Cdc6, Cdca8, Cdca2, E2f2, Ezh2, Skp2 and Melk.

## Cc1cc(-c2ccccc2)cc(C(=O)NNS(=O)(=O)c2ccccc2)c1F [Compound 36]
[1]; B-cell, 96 h, Eμ-Myc pre-leukemia pre B cells, 4 days
  IC50: 421 nM
[1]; in words
  suppression of pre B cell proliferation in cells expressing the cMyc oncogene: effective in suppression of pre B cell proliferation
Wild type pre-B cells; 1 μM
  cells in G0/G1 (BrdU): 54.9
  cells in G2/M (BrdU): 5.5
  cells in S (BrdU): 32.7
Wild type pre-B cells; in words
  cells in G0/G1: increase in cells in G0/G1
  cells in S-phase: reduction of cells in S-phase
Wild type pre B cells [2]; 1 μM, Day 4
  cumulative average cell number: 54333
Wild type pre B cells [2]; 1 μM, Day 8
  cumulative average cell number: 73474
Wild type pre B cells [2]; 1 μM, Day 12
  cumulative average cell number: 15097
Wild type pre B cells [2]; 5 μM, Day 4
  cumulative average cell number: 32555
Wild type pre B cells [2]; 5 μM, Day 8
  cumulative average cell number: 19925
Wild type pre B cells [2]; 5 μM, Day 12
  cumulative average cell number: 0.000
Wild type pre B cells [2]; 10 μM, Day 4
  cumulative average cell number: 26111
Wild type pre B cells [2]; 10 μM, Day 8
  cumulative average cell number: 8192
Wild type pre B cells [2]; 10 μM, Day 12
  cumulative average cell number: 0.000
Wild type pre B cells [2]; in words, compared to vehicle
  proliferation of wild type B cell progenitors: inhibited
[3]; 5 μM
  up regulation of β-galactosidase: 186%
[3]; 10 μM
  up regulation of β-galactosidase: 195%
[3]; 20 μM
  up regulation of β-galactosidase: 185%
[3]; Mus musculus, Fibroblast, read-out: IC50 (dose at which 50% senescence occur), Bioassay 1
  IC50: 1600 nM
Wild type pro-B cells; 1 μM, wild type pro-B cells, primary colonies
  colony number: 161.25
Wild type pro-B cells; 1 μM, wild type pro-B cells, secondary colony formation
  colony number, secondary colony formation: 12.25
Wild type pro-B cells; in words, compared to vehicle
  colony formation: greatly inhibits colony formation
Wild type pre B cells [4]
  IC50: 364 nM
Wild type pre B cells [5]; cultured for 4 days
  cells in G0: 14.5%
  cells in G1: 55.9%
  cells in G2/M: 12.7%
  cells in S: 15.6%
Wild type pre B cells [5]; cultured for 6 days
  cells in G0: 11.0%
  cells in G1: 66.6%
  cells in G2/M: 9.0%
  cells in S: 8.3%
Wild type pre B cells [5]; wild type pre-B cells
  number of cells in S phase down-regulated: 40%
[6]; 96 h
  Cumulative Cell Counts: 198333.3
[6]; 336 h
  Cumulative Cell Counts: 226600
Cdc6 mRNA
  CDC6 mRNA % control: 65.1%
